Molecules are shown by their SMILES. Where a name gives a salt, the structure may show the parent alone.

The source of these data is patent publication US7067700B2, “Process for preparing sertraline hydrochloride polymorphic form II” (Fermion Oy, priority 2001, dated 2006).

Series [1] is described as follows: stability of sertraline hydrochloride polymorphic forms. To be noted: statement in words. The class given is physicochemical.
Series [2] can be described thus: dissolution / solubility of sertraline hydrochloride polymorphic forms. The class given is physicochemical. To be noted: comparison of polymorphic forms; statement in words.
The conditions of series [3]: claimed in the cited patent; cited from earlier work.
For series [4] the following is noted: claimed in the cited patent; cited from earlier work. The source holds these as a separate data set.

On to `CNC1CCC(c2ccc(Cl)c(Cl)c2)c2ccccc21` (stereo not drawn) [(1S-cis)-4-(3,4-dichlorophenyl)-1,2,3,4-tetrahydro-N-methyl-1-naphtalenamine hydrochloride], for which the “stability of the polymorph” value in series [1] (form II prepared by the method described, no test described) is given as “stable”.
For the compound `CN[C@H]1CC[C@@H](c2ccc(Cl)c(Cl)c2)c2ccccc21.Cl` [Form I], the “stability of the polymorph (comparison of forms)” value in series [1] (compared with form II) is “more stable”. Moreover, the dissolution properties result in series [2] is recorded as “poor dissolution properties”.
As to `CN[C@H]1CC[C@@H](c2ccc(Cl)c(Cl)c2)c2ccccc21.Cl` [Polymorphic form T1], in series [3], the “solubility in aqueous fluids as claimed in U.S. Pat. No. 5,734,083” value is reported as “enhanced solubility”. Besides, the “stability as claimed in U.S. Pat. No. 5,734,083” value in series [4] is “acceptable stable”. Moreover, the dissolution properties result in series [2] is “dissolves better than forms I and II”.
